ChEMBL document CHEMBL3885881, “DrugMatrix”

Species: Rattus norvegicus
Format: toxicity, organism-based, Sprague-Dawley
Conditions: in vivo, po, route oral GAVAGE, […]; for ABSOLUTE EOSINOPHIL / ABSOLUTE LYMPHOCYTE / ABSOLUTE MONOCYTE / ABSOLUTE SEGMENTED NEUTROPHIL / BASOPHIL / EOSINOPHIL / ERYTHROCYTE COUNT / HEMATOCRIT / HEMOGLOBIN / LEUKOCYTE COUNT / LYMPHOCYTE / MEAN CORPUSCULAR HEMOGLOBIN / MEAN CORPUSCULAR HEMOGLOBIN CONCENTRATION / MEAN CORPUSCULAR VOLUME / MONOCYTE / NEUTROPHIL / NUCLEATED RED BLOOD CELLS / PLATELET COUNT: tissue Blood; for ALANINE AMINOTRANSFERASE / ALBUMIN / ALKALINE PHOSPHATASE / ASPARTATE AMINOTRANSFERASE / BLOOD UREA NITROGEN / CARBON DIOXIDE / CHLORIDE / CHOLESTEROL / CREATINE PHOSPHOKINASE / CREATININE / GLUCOSE / LACTATE DEHYDROGENASE / LIPASE / PHOSPHORUS / POTASSIUM / SODIUM / TOTAL BILIRUBIN / TOTAL PROTEIN / URIC ACID: tissue Plasma
[1] = 130 mg/kg, 24 h, dose level Low, time 1 day
[2] = 500 mg/kg, 6 h, dose level High, time 0.25 day
[3] = 500 mg/kg, 24 h, dose level High, time 1 day

Description: DrugMatrix - Regimen: Single

SMILES: CCOC(=O)C(C)(C)Oc1ccc(Cl)cc1 [CLOFIBRATE]
- ABSOLUTE EOSINOPHIL [1]: 55.33 CELLS/uL
- ABSOLUTE LYMPHOCYTE [1]: 15484.17 CELLS/uL
- ABSOLUTE MONOCYTE [1]: 278.5 CELLS/uL
- ABSOLUTE SEGMENTED NEUTROPHIL [1]: 965.33 CELLS/uL
- BASOPHIL [1]: 0%
- EOSINOPHIL [1]: 0.33%
- ERYTHROCYTE COUNT [1]: 5.03 x10E6/uL
- HEMATOCRIT [1]: 32.6%
- HEMOGLOBIN [1]: 13.25 G/DL
- LEUKOCYTE COUNT [1]: 16.78 x10E3/uL
- LYMPHOCYTE [1]: 92.17%
- MEAN CORPUSCULAR HEMOGLOBIN [1]: 26.33 pg
- MEAN CORPUSCULAR HEMOGLOBIN CONCENTRATION [1]: 40.65 G/DL
- MEAN CORPUSCULAR VOLUME [1]: 64.78 fL
- MONOCYTE [1]: 1.67%
- NEUTROPHIL [1]: 5.83%
- NUCLEATED RED BLOOD CELLS [1]: 0 /100WBC
- PLATELET COUNT [1]: 862.83 x10E3/uL
- ALANINE AMINOTRANSFERASE [1]: 67 u/L
- ALBUMIN [1]: 4.33 G/DL
- ALKALINE PHOSPHATASE [1]: 318.17 u/L
- ASPARTATE AMINOTRANSFERASE [1]: 75.17 u/L
- BLOOD UREA NITROGEN [1]: 12.67 mg/dL
- CARBON DIOXIDE [1]: 32 mmol/L
- CHLORIDE [1]: 100 MEQ/L
- CHOLESTEROL [1]: 47.33 mg/dL
- CREATINE PHOSPHOKINASE [1]: 215.5 u/L
- CREATININE [1]: 0.16 mg/dL
- GLUCOSE [1]: 132.67 mg/dL
- LACTATE DEHYDROGENASE [1]: 108.83 u/L
- LIPASE [1]: 10.5 u/L
- PHOSPHORUS [1]: 9.12 mg/dL
- POTASSIUM [1]: 6.21 MEQ/L
- SODIUM [1]: 142.78 MEQ/L
- TOTAL BILIRUBIN [1]: 0.17 mg/dL
- TOTAL PROTEIN [1]: 5.58 G/DL
- URIC ACID [1]: 1.07 mg/dL
- ABSOLUTE EOSINOPHIL [2]: 41.33 CELLS/uL
- ABSOLUTE LYMPHOCYTE [2]: 7521 CELLS/uL
- ABSOLUTE MONOCYTE [2]: 204.83 CELLS/uL
- ABSOLUTE SEGMENTED NEUTROPHIL [2]: 899.5 CELLS/uL
- BASOPHIL [2]: 0%
- EOSINOPHIL [2]: 0.5%
- ERYTHROCYTE COUNT [2]: 5.56 x10E6/uL
- HEMATOCRIT [2]: 35.4%
- HEMOGLOBIN [2]: 13.87 G/DL
- LEUKOCYTE COUNT [2]: 8.67 x10E3/uL
- LYMPHOCYTE [2]: 86.5%
- MEAN CORPUSCULAR HEMOGLOBIN [2]: 24.97 pg
- MEAN CORPUSCULAR HEMOGLOBIN CONCENTRATION [2]: 39.18 G/DL
- MEAN CORPUSCULAR VOLUME [2]: 63.73 fL
- MONOCYTE [2]: 2.33%
- NEUTROPHIL [2]: 10.67%
- NUCLEATED RED BLOOD CELLS [2]: 0 /100WBC
- PLATELET COUNT [2]: 1195.5 x10E3/uL
- ALANINE AMINOTRANSFERASE [2]: 52.5 u/L
- ALBUMIN [2]: 4.53 G/DL
- ALKALINE PHOSPHATASE [2]: 309.5 u/L
- ASPARTATE AMINOTRANSFERASE [2]: 94.5 u/L
- BLOOD UREA NITROGEN [2]: 9.33 mg/dL
- CARBON DIOXIDE [2]: 22.5 mmol/L
- CHLORIDE [2]: 100.67 MEQ/L
- CHOLESTEROL [2]: 65.33 mg/dL
- CREATINE PHOSPHOKINASE [2]: 333.17 u/L
- CREATININE [2]: 0.16 mg/dL
- GLUCOSE [2]: 130.33 mg/dL
- LACTATE DEHYDROGENASE [2]: 146.83 u/L
- LIPASE [2]: 9.83 u/L
- PHOSPHORUS [2]: 11.68 mg/dL
- POTASSIUM [2]: 6.42 MEQ/L
- SODIUM [2]: 143.4 MEQ/L
- TOTAL BILIRUBIN [2]: 0.18 mg/dL
- TOTAL PROTEIN [2]: 6 G/DL
- URIC ACID [2]: 1.37 mg/dL
- ABSOLUTE EOSINOPHIL [3]: 42 CELLS/uL
- ABSOLUTE LYMPHOCYTE [3]: 10953.5 CELLS/uL
- ABSOLUTE MONOCYTE [3]: 221.67 CELLS/uL
- ABSOLUTE SEGMENTED NEUTROPHIL [3]: 1432.83 CELLS/uL
- BASOPHIL [3]: 0%
- EOSINOPHIL [3]: 0.33%
- ERYTHROCYTE COUNT [3]: 5.6 x10E6/uL
- HEMATOCRIT [3]: 35.22%
- HEMOGLOBIN [3]: 14.02 G/DL
- LEUKOCYTE COUNT [3]: 12.65 x10E3/uL
- LYMPHOCYTE [3]: 86.83%
- MEAN CORPUSCULAR HEMOGLOBIN [3]: 25.02 pg
- MEAN CORPUSCULAR HEMOGLOBIN CONCENTRATION [3]: 39.8 G/DL
- MEAN CORPUSCULAR VOLUME [3]: 62.93 fL
- MONOCYTE [3]: 1.67%
- NEUTROPHIL [3]: 11.17%
- NUCLEATED RED BLOOD CELLS [3]: 0 /100WBC
- PLATELET COUNT [3]: 1112.33 x10E3/uL
- ALANINE AMINOTRANSFERASE [3]: 93.33 u/L
- ALBUMIN [3]: 4.55 G/DL
- ALKALINE PHOSPHATASE [3]: 411.33 u/L
- ASPARTATE AMINOTRANSFERASE [3]: 162.83 u/L
- BLOOD UREA NITROGEN [3]: 11.67 mg/dL
- CARBON DIOXIDE [3]: 33.5 mmol/L
- CHLORIDE [3]: 97.83 MEQ/L
- CHOLESTEROL [3]: 34.83 mg/dL
- CREATINE PHOSPHOKINASE [3]: 245.67 u/L
- CREATININE [3]: 0.19 mg/dL
- GLUCOSE [3]: 137.17 mg/dL
- LACTATE DEHYDROGENASE [3]: 114.17 u/L
- LIPASE [3]: 9.83 u/L
- PHOSPHORUS [3]: 10.23 mg/dL
- POTASSIUM [3]: 6.67 MEQ/L
- SODIUM [3]: 143.3 MEQ/L
- TOTAL BILIRUBIN [3]: 0.25 mg/dL
- TOTAL PROTEIN [3]: 5.77 G/DL
- URIC ACID [3]: 1.18 mg/dL
